Test results taken from ChEMBL document CHEMBL1132088, “Three-dimensional structure-function relationship of vitamin D: side chain location and various activities” (1999).

What was measured:
[1] = molecular target: T1, Vitamin D3 receptor (Bos taurus) (UniProt Q28037); test: Affinity for bovine Vitamin D3 receptor; set-up: reference not given here
T1 sequence (whole entry): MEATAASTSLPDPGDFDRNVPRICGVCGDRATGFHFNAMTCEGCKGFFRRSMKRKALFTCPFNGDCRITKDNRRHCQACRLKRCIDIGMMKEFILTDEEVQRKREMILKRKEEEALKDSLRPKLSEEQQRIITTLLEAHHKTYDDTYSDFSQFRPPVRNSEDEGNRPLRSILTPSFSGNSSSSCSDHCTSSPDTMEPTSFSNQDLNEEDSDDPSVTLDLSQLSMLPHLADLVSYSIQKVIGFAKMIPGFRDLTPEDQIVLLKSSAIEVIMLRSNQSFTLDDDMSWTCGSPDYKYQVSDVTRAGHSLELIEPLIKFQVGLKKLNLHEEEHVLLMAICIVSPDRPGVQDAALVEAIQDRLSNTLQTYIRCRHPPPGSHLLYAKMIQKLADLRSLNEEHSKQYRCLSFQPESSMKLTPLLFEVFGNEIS

[2] = tested on: Rattus norvegicus; test: In vivo calcemic activity expressed as relative activity for Bone calcium mobilization (BCM) in vitamin D deficient rats
[3] = Gene transcriptional activity against osteopontin (OPN); assay type: functional
[4] = tested on: HL-60; test: In vitro activity expressed as relative activity to induce the differentiation of human promyelocytic leukemia (HL-60) cells by NBT reduction assay
[5] = molecular target: T2, Vitamin D3 receptor (Sus scrofa) (UniProt A3RGC1); test: (§1) Affinity for porcine Vitamin D3 receptor; set-up: reference not given here
T2 sequence (whole entry): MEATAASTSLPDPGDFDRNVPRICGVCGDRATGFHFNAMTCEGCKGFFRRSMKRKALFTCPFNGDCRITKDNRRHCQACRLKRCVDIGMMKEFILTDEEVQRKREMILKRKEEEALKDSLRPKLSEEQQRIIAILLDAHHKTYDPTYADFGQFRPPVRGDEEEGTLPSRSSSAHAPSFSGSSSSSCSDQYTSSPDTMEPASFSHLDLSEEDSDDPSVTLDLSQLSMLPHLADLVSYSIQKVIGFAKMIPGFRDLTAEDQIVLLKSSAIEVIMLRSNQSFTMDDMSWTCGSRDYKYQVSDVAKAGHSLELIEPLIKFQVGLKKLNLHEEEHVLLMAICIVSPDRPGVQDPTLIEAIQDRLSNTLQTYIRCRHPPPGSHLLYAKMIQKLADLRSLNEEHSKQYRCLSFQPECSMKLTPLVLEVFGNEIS

[6] = molecular target: T3, Vitamin D-binding protein (Rattus norvegicus) (UniProt P04276); test: Binding affinity for rat Vitamin D binding protein; set-up: reference not given here
T3 sequence (whole entry): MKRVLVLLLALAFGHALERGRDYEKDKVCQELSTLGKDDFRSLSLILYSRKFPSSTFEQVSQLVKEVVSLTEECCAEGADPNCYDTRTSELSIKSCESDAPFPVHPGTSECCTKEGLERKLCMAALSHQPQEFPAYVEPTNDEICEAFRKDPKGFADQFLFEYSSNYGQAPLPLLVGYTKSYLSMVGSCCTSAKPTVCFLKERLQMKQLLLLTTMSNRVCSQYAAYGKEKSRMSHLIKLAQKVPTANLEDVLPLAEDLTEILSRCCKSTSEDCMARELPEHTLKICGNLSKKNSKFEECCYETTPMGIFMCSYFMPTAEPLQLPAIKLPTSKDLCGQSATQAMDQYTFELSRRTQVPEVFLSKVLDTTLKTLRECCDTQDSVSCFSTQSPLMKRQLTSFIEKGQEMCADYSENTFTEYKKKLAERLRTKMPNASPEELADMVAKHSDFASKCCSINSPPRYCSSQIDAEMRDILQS

[7] = tested on: Rattus norvegicus; test: In vivo calcemic activity expressed as relative activity for Intestinal calcium transport (ICA) in vitamin D deficient rats
[8] = tested on: MCF7; test: In vitro activity expressed as relative activity to inhibit the proliferation of human breast cancer cells (MCF-7) by measuring [3H]thymidine incorporation
[9] = tested on: Keratinocyte cell line; test: In vitro activity expressed as relative activity to inhibit the proliferation of primary cultures of human foreskin keratinocytes by measuring [3H]thymidine incorporation
[10] = tested on: MCF7; test: In vitro activity expressed as relative activity to inhibit the proliferation of human breast cancer cells (MCF-7) by measuring [3H]thymidine incorporation; remark: listed apart in the source
[11] = tested on: Keratinocyte cell line; test: In vitro activity expressed as relative activity to inhibit the proliferation of primary cultures of human foreskin keratinocytes by measuring [3H]thymidine incorporation; remark: listed apart in the source
[12] = molecular target: T2, Vitamin D3 receptor (Sus scrofa); test: as §1

Compound | Activity [1] | Activity [5] | Activity [6] | Activity [12] | relative activity [2] | relative activity [3] | relative activity [4] | relative activity [7] | relative activity [8] | relative activity [9] | relative activity [10] | relative activity [11]
C=C1/C(=C\C=C2/CCC[C@]3(C)[C@@H]([C@H](C)CCCC(C)(C)O)CC[C@@H]23)C[C@@H](O)C[C@@H]1O [CALCITRIOL] | 100 | 100 | 100 |  | 100% | 100% | 100% | 100% |  |  | 100% | 100%
C=C1/C(=C\C=C2/CCC[C@]3(C)[C@@H]([C@@H](C)CCCC(C)(C)O)CC[C@@H]23)C[C@@H](O)C[C@@H]1O |  |  | 4000 | 500 |  |  |  |  |  |  |  | 

Further lines, with some results ahead:

Activity [1] | Activity [5] | Activity [6] | Activity [12] | Compound | relative activity [2] | relative activity [3] | relative activity [4] | relative activity [7] | relative activity [8] | relative activity [9] | relative activity [10] | relative activity [11]
33 | 33 | 67 |  | C=C1/C(=C\C=C2/CCC[C@]3(C)[C@@H]([C@H](C)[C@@H](C)CCC(C)(C)O)CC[C@@H]23)C[C@@H](O)C[C@@H]1O | 26% | 22% | 100% | 50% |  |  |  | 
1100 | 2000 | < 0.25 |  | C=C1/C(=C\C=C2/CCC[C@]3(C)[C@@H]([C@@H](C)[C@H](C)CCC(C)(C)O)CC[C@@H]23)C[C@@H](O)C[C@@H]1O | 220% | 10000% | 12000% | 51% | 15000% | 9000% |  | 
2 | 1.7 | 0.45 |  | C=C1/C(=C\C=C2/CCC[C@]3(C)[C@@H]([C@H](C)[C@H](C)CCC(C)(C)O)CC[C@@H]23)C[C@@H](O)C[C@@H]1O | 32% | 1% | 1.3% | 25% |  |  |  | 
0.4 | 1 | < 0.25 |  | C=C1/C(=C\C=C2/CCC[C@]3(C)[C@@H]([C@@H](C)[C@@H](C)CCC(C)(C)O)CC[C@@H]23)C[C@@H](O)C[C@@H]1O | 5% | 3% | 8% | < 1% |  | 60% | 70% | 
